Reference: US4329426A, “Process for preparation of antibiotics and biologically pure culture for use therein” (Kowa Company, Ltd., priority 1978, dated 1982)

Key:
Acute toxicity in mice = assay type: in vivo; conditions: mouse, in vivo
Solubility = assay type: physicochemical
mice = assay: Acute toxicity in mice; assay type: in vivo

Question: Which LD50 (Acute toxicity in mice; iv.) does the source give for CNCC1CCC(N)C(OC2C(N)CC(OC)C(NC)C2O)O1 (stereo not drawn) [KA-7038 III] here?
Answer: > 300 mg/kg

Question: What about the LD50 (Acute toxicity in mice; sc.) of the same compound?
Answer: > 600 mg/kg

Question: And the Solubility in acetone (Solubility)?
Answer: slightly soluble

Question: What about the “Solubility in chloroform, ethyl acetate, diethyl ether, hexane and petroleum ether” value (“Solubility in chloroform, ethyl acetate” below) (Solubility) of the same compound?
Answer: Insoluble

Question: What about the Solubility in ethanol (Solubility) of the same compound?
Answer: little soluble

Question: What about the Solubility in methanol (Solubility) of the same compound?
Answer: Easily soluble

Question: And the Solubility in water (Solubility)?
Answer: Very readily soluble

Question: Which results are given for CNC1C(O)CC(N)C(OC2OC(CN)CCC2N)C1O (stereo not drawn) [KA-7038 II]?
Answer: LD50 (Acute toxicity in mice; iv.): > 300 mg/kg; LD50 (Acute toxicity in mice; sc.): > 600 mg/kg; Solubility in acetone (Solubility): slightly soluble; Solubility in chloroform, ethyl acetate, diethyl ether, hexane and petroleum ether (Solubility): Insoluble; Solubility in ethanol (Solubility): little soluble; Solubility in methanol (Solubility): Easily soluble; Solubility in water (Solubility): Very readily soluble

Question: For CNC1C(O)C(OC2OC(CN)CCC2N)C(N)C(O)C1OC (stereo not drawn) [KA-7038 IV], which LD50 (Acute toxicity in mice; iv.) is on record?
Answer: > 300 mg/kg

Question: And the LD50 (Acute toxicity in mice; sc.)?
Answer: > 600 mg/kg

Question: And the Solubility in acetone (Solubility)?
Answer: slightly soluble

Question: What about the “Solubility in chloroform, ethyl acetate” value (Solubility) of the same compound?
Answer: Insoluble

Question: And the Solubility in ethanol (Solubility)?
Answer: little soluble

Question: And the Solubility in methanol (Solubility)?
Answer: Easily soluble

Question: And the Solubility in water (Solubility)?
Answer: Very readily soluble

Question: For CNCC1CCC(N)C(OC2C(N)CC(OC)C(N(C)C(=O)CN)C2O)O1 (stereo not drawn) [KA-7038 I], which LD50 (Acute toxicity in mice; iv.) is on record?
Answer: > 100 mg/kg

Question: What about the LD50 (Acute toxicity in mice; sc.) of the same compound?
Answer: > 400 mg/kg

Question: And the Solubility in acetone (Solubility)?
Answer: sightly soluble

Question: And the “Solubility in chloroform, ethyl acetate” value (Solubility)?
Answer: Insoluble

Question: What about the Solubility in ethanol (Solubility) of the same compound?
Answer: little soluble

Question: What about the Solubility in methanol (Solubility) of the same compound?
Answer: Easily soluble

Question: What about the Solubility in water (Solubility) of the same compound?
Answer: Very readily soluble

Question: Which LD50 (mice; iv.) does the source give for CNCC1CCC(N)C(OC2C(N)CC(OC)C(NC)C2O)O1 (stereo not drawn) [KA-7038 VI] here?
Answer: > 300 mg/kg

Question: What about the LD50 (mice; sc.) of the same compound?
Answer: > 600 mg/kg

Question: And the Solubility in acetone (Solubility)?
Answer: slightly soluble

Question: And the “Solubility in chloroform, ethyl acetate” value (Solubility)?
Answer: Insoluble

Question: What about the Solubility in ethanol (Solubility) of the same compound?
Answer: little soluble

Question: What about the Solubility in methanol (Solubility) of the same compound?
Answer: Easily soluble

Question: What about the Solubility in water (Solubility) of the same compound?
Answer: Very readily soluble

Question: With CNC1C(OC)CC(N)C(OC2OC(CN)CCC2N)C1O (stereo not drawn) [KA-7038 V] as the compound, how does the LD50 (Acute toxicity in mice; iv.) read?
Answer: > 300 mg/kg

Question: What about the LD50 (Acute toxicity in mice; sc.) of the same compound?
Answer: > 600 mg/kg

Question: And the Solubility in acetone (Solubility)?
Answer: slightly soluble

Question: What about the “Solubility in chloroform, ethyl acetate” value (Solubility) of the same compound?
Answer: Insoluble

Question: What about the Solubility in ethanol (Solubility) of the same compound?
Answer: little soluble

Question: And the Solubility in methanol (Solubility)?
Answer: Easily soluble

Question: And the Solubility in water (Solubility)?
Answer: Very readily soluble
